Holding throughout (assay type): biochemical
Test [1] addresses T1, native non-tagged SULT2B1b (Homo sapiens, UniProt O00204).
T1 sequence (O00204 1-365): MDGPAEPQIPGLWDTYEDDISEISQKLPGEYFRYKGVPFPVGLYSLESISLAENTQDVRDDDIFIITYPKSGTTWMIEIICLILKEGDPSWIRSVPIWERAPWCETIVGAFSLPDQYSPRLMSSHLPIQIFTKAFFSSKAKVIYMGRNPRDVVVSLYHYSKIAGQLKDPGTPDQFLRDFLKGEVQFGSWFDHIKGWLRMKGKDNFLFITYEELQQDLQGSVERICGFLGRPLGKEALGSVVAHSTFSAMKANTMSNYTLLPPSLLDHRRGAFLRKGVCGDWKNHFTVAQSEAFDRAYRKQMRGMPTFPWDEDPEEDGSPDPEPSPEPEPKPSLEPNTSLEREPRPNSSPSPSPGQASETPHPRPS
The test can be described thus: Initial-rate 1-HP sulfonation inhibition, native. The conditions noted are these: native enzyme.

Another test addresses T2, SULT2B1a (Homo sapiens, UniProt O00204).
T2 sequence (O00204 1-350 isoform O00204-2): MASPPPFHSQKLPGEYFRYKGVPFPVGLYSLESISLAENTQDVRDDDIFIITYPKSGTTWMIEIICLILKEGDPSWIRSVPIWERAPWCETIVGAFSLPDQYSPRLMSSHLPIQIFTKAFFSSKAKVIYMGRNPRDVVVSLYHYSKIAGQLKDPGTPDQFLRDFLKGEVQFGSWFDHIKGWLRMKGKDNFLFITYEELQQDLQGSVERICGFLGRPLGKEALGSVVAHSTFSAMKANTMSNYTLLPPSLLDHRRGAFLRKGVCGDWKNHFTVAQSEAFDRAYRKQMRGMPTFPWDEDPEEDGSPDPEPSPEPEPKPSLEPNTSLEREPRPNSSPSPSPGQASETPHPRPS
The test can be described thus: Initial-rate 1-HP sulfonation inhibition.

In another test the target is T3, SULT2A1 (Homo sapiens, UniProt Q06520).
T3 sequence (Q06520 1-285): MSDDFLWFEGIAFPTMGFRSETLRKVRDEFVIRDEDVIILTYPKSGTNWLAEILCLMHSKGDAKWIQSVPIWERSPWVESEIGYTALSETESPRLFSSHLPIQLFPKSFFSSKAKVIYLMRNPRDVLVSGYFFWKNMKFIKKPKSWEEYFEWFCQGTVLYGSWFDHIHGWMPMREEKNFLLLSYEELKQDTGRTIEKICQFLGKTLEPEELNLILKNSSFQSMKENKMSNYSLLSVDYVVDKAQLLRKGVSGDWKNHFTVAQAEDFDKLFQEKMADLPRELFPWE
The experiment in a line: Initial-rate 1-HP sulfonation inhibition.

For test [2], the target named is T4, SULT2B1b S347D spin-labeled at residue 21 (Homo sapiens, UniProt O00204, C225S/C278S/C81S/S21C/S347D).
T4 sequence (O00204 1-365 S21C/C81S/C225S/C278S/S347D): T1 sequence (O00204 1-365) with S21C, C81S, C225S, C278S, S347D
The test can be described thus: Initial-rate parameters, spin-labeled mutant 21.

Test [3] has as its target T5, SULT2B1b S347D spin-labeled at residue 171 (Homo sapiens, UniProt O00204, C225S/C278S/C81S/S347D/T171C).
T5 sequence (O00204 1-365 C81S/T171C/C225S/C278S/S347D): T1 sequence (O00204 1-365) with C81S, T171C, C225S, C278S, S347D
The experiment in a line: Initial-rate parameters, spin-labeled mutant 171.

Substitutions are numbered along the chain they refer to. Where two headings read alike, the source gives them in different places.

As usually defined, the Ki is the dissociation constant of the complex between target and ligand, obtained from inhibition or displacement. High values mean a looser hold on the target, low ones a stronger hold on the target.

For `O=c1c(O)c(-c2ccc(O)c(O)c2)oc2cc(O)cc(O)c12` [quercetin], in test [1], the “α WT (quercetin)” value was found to be 0.08 ± 0.01. In addition, the inhibition by quercetin entry is given as “does not detectably inhibit” on SULT2B1a (concentrations as high as 10 μM), “No inhibition was detected” on SULT2B1a (up to 100 μM quercetin), “not inhibited” against SULT2A1 and “No inhibition was detected” against SULT2A1 (up to 100 μM quercetin). In addition, the Ki was determined as 0.33 µM in test [2] and 0.35 µM in test [3].

(Values after publication PMC9260854 (Biochemistry, 2022).)
